Reference: patent publication US9901646B2, “Methods for induction of antigen-specific immune tolerance” (École Polytechnique Fédérale de Lausanne (EPFL), priority 2010, dated 2018)
8‑arm PEG = 8-arm polyethylene glycol (PEG) dendrimer, conjugated via pyridyldisulfide groups to cysteine thiols

Tests used:
[1] = system: human epithelial 293T cells; assay: Binding of bacteria displaying peptide to cells, flow cytometry; details: peptide displayed on bacteria
Description: (§1) Method: To characterize specificity, individual sequenced clones were analyzed using cytometry for binding toward human erythrocytes (type A and B), mouse erythrocytes, HEK293T cells and HUVECs. For binding assays, 10^6 mammalian cells were scanned on an AccuriA6 after co-incubation with 5×10^7 bacteria for 1 h at 4° C. followed by three washes in HFS (5% HSA, 2% FBS in PBS). The percentage of cells with green bacteria bound was calculated using FLOWJO Software.

human endothelial HUVECs = assay: as above; details: peptide displayed on bacteria
Description: as §1

[2] = system: human erythrocytes (type A and B); assay: as above; details: peptide displayed on bacteria, 1 h at 4° C.
Description: as §1

mouse erythrocytes [3] = assay: 8-arm PEG constructs binding to erythrocytes in vitro, flow cytometry
circulating erythrocytes = assay: 8-arm PEG constructs binding to circulating erythrocytes after intravenous injection, flow cytometry; format: in vivo, mouse
Excerpt: FIG. 17 presents experimental results depicting erythrocyte cell-surface half-life of 8-arm PEG-ERY1 (filled circles) and 8-arm PEG-MIS (empty boxes), determined by flow cytometry.

mouse erythrocytes [4] = assay: scFv binding to erythrocytes, flow cytometry with anti-6×His-PE
Description: FIG. 19 presents experimental results as a flow cytometry histogram. Mouse erythrocytes were incubated with TER119-SIINFEKL (grey filled histogram) or albumin (empty histogram). Fluorescent signal comes from the anti-6×His-PE antibody used in detection of the scFv.

OT-I CD8+ T cells [5] = assay: OT-I tolerance and challenge model (Example 21); format: in vivo, mouse
Description: 3×10^5 CFSE-labeled OT-I CD8^+ T cells were injected into CD45.1^+ recipient mice as described above. 1 and 6 d following adoptive transfer, mice were intravenously administered 10 μg of ERY1-OVA or OVA, or an equimolar dose of TER119-SIINFEKL in 100 μL, saline into the tail vein. 15 d following adoptive transfer, mice were challenged with 5 μg OVA and 25 ng ultra-pure Escherichia coli LPS (InvivoGen) in 25 μL intradermally into each rear leg pad (Hock method, total dose of 10 μg OVA and 50 ng LPS). Mice were sacrificed 4 d following challenge, and spleen and draining lymph node cells were isolated for restimulation. For flow cytometry analysis of intracellular cytokines, cells were restimulated in the presence of 1 mg/mL OVA or 1 μg/mL SIINFEKL peptide (Genscript) for 3 h. Brefeldin-A (Sigma, 5 μg/mL) was added and restimulation resumed for an additional 3 h prior to staining and flow cytometry analysis.
(§2) The following anti-mouse antibodies were used for flow cytometry: CD1d Pacific Blue, CD3E PerCP-Cy5.5, CD8a PE-Cy7, CD45.2 Pacific Blue, IFNγ-APC, CD8a APC-eF780, (all from eBioscience), in addition to fixable live/dead dye (Invitrogen), and annexin-V-Cy5 labeling kit (BioVision). Samples were analyzed on a CyAn ADP flow cytometer (Beckman Coulter). Cells were washed first with PBS, stained for 20 min on ice with live/dead dye, blocked for 20 min on ice with 24G2 hybridoma medium, surface stained for 20 min on ice, fixed in 2% paraformaldehyde for 20 min ice, intracellularly stained in the presence of 0.5% saponin for 45 min on ice, followed by a final wash prior to analysis. For apoptosis staining, annexin-V-Cy5 was added 5 min prior to analysis.

OT-I CD8+ T cells [6] = assay: OT-I CD8+ T cell adoptive transfer, short-term proliferation study (Example 21); format: in vivo, mouse; details: intravenous
Description: CD8^+ T cells from OT-I (CD45.2^+) mouse spleens were isolated using a CD8 magnetic bead negative selection kit (Miltenyi Biotec) as per the manufacturer's instructions. Freshly isolated CD8^+ OT-I cells were resuspended in PBS and labeled with […] carboxyfluorescein succinimidyl ester (CFSE, Invitrogen) for 6 min at room temperature, and the reaction was quenched for 1 min with an equal volume of IMDM with 10% FBS (Gibco). Cells were washed, counted, and resuspended in pure IMDM prior to injection. 3×10^6 CFSE-labeled CD8^+ OT-I cells were injected intravenously into the tail vein of recipient CD45.1^+ mice. For short-term proliferation studies, 10 μg of ERY1-OVA or OVA, or an equimolar dose of TER119-SIINFEKL in 100 μL volume was injected 24 h following adoptive transfer. Splenocytes were harvested 5 d following antigen administration and stained for analysis by flow cytometry.
as §2

mouse erythrocytes [7] = assay: TER119-ChrA binding to erythrocytes; details: data not shown
BDC2.5 CD4 T cells = assay: Co-culture of BDC2.5 splenic dendritic cells and CD4 T cells, proliferation; format: cell-based, mouse; details: co-culture with BDC2.5 splenic dendritic cells
Excerpt: FIG. 24 is a plot of experimental results showing proliferation of CD4 T cells from the transgenic NODBDC2.5 mouse in co-culture with splenic DCs, with various media additives.
To study T cell behavior towards the chromogranin-A antigen variants, the NODBDC2.5 transgenic mouse was used, which harbors T cells specific for the recognition of the chromogranin-A antigen.

[8] = Cross-over study: reversal of pre-existing immunity towards asparaginase; format: in vivo, mouse; details: 21 days following multiple intravenous doses two days apart
Description: A cross-over study was performed to determine if erythrocyte-binding asparaginase could reverse immunity towards clinical asparaginase. Mice were intravenously administered multiple doses of wild-type asparaginase two days apart. […] Immunized mice were then therapeutically treated with erythrocyte-binding asparaginase regimens at varying doses. In both dosing regimens, ERY-conjugated asparaginase reduced antibody levels approx. 10-fold, thus reversing pre-existing humoral immunity
(§3) Desired dosages of ERY1-ASNase or ASNase were prepared in sterile 0.9% saline, and 100 μL of the solution was injected into the tail vein of anesthetized C57BL/6 mice. Blood was drawn at pre-determined time points either by cheek puncture or tail incisions.
Serum from experimental groups was serially diluted into PBS and incubated for 2 h at RT on ASNase-coated ELISA plates. HRP-conjugated anti-mouse IgG (Southern Biotech) was used as the detection antibody.

[9] = Immunogenicity of erythrocyte-bound versus wild-type asparaginase, serum IgG ELISA; format: in vivo, mouse; details: 2-dose regimen, 15 μg i.v. every 2 days, up to 21 days following the final injection
Description: A mouse erythrocyte-binding variant of asparaginase (ERY1-ASNase) was created by conjugating the mouse erythrocyte-specific peptide ERY1 (Kontos and Hubbell, 2010). To determine the immunogenicity of erythrocyte-bound versus wild-type asparaginase, a study was performed to evaluate to evaluate two regimens, namely exposure to a 2-dose and a 6-dose regimen of the ERY conjugate (ERY1-ASNase) or the native form (ASPARAGINASE MEDAC, Medac GmbH; which was also used as the raw material for the ERY1-ASNase conjugate). In each regimen, 15 μg of ERY1-ASNase or ASNase was administered intravenously every 2 days, and blood was drawn every 7 days.
as §3
(§4) Anti-asparaginase antibody detection from serum method Serum from experimental groups was serially diluted into PBS and incubated for 2 h at RT on ASNase-coated ELISA plates. HRP-conjugated anti-mouse IgG (Southern Biotech) was used as the detection antibody.

[10] = Prophylaxis study: tolerance towards wild-type asparaginase; format: in vivo, mouse; details: re-administration / six challenges with wild-type asparaginase
Description: A prophylaxis study was performed to determine if erythrocyte-binding asparaginase induced bona-fide immune tolerance towards wild-type asparaginase. Mice previously administered with wild-type clinical asparaginase were challenged with an additional dose following the onset of humoral immunity. […] On average, mice tolerized with erythrocyte-binding asparaginase developed approx. 6000-fold fewer antibodies towards clinical wild-type asparaginase.
as §3, §4

[11] = following challenge with OVA and LPS
[12] = i.v. 1 and 6 days after adoptive transfer, 4 d after OVA/LPS challenge

## GQSGQSWSRAILPLFKIQPVGSSGGS (Erythrocyte Binding Peptide) [ERY50]
[1]
  binding to epithelial 293T cells: bound epithelial/endothelial cells
Human endothelial HUVECs
  binding to endothelial HUVECs: bound epithelial/endothelial cells
[2]
  binding to human erythrocytes, specificity as compared to 293T cells and HUVECs: bound human erythrocytes

## 8-arm PEG-ERY1: fluorescent 8-arm PEG construct conjugated with ERY1 peptide by disulfide bond (H-WMVLPWLPGTLDGGSGC(8‑arm PEG)RG-NH2; also: Cys disulfide-linked to 8-arm PEG scaffold (fluorescent))
Mouse erythrocytes [3]
  binding to mouse erythrocytes following in vitro incubation: bind to mouse erythrocytes
Circulating erythrocytes; flow cytometry
  binding to circulating erythrocytes upon intravenous injection: bind to circulating erythrocytes
Circulating erythrocytes; intravenous administration
  cell-surface half-life on circulating erythrocytes: 2.2 h
  time detected on circulating erythrocytes following intravenous administration: 5 h

## TER119-SIINFEKL: recombinant fusion of scFv TER119 to the MHC-I immunodominant domain of OVA (SGLEQLESIINFEKL; epitope)
Mouse erythrocytes [4]
  binding to mouse erythrocytes: bound mouse erythrocytes
OT-I CD8+ T cells [5]; [11]
  fewer IFNγ-expressing cells in lymph nodes compared to challenge control mice: 33 fold
  fewer IFNγ-expressing cells in lymph nodes compared to mice treated with an equivalent dose of OVA: over 14 fold
OT-I CD8+ T cells [5]; [12]
  fewer OT-I CD8+ T cells in draining lymph nodes as compared to OVA-treated mice: over 13 fold
  fewer OT-I CD8+ T cells in draining lymph nodes than challenge control mice: over 42 fold
OT-I CD8+ T cells [6]; 10 μg or equimolar dose
  PD-1+ proliferating OT-I CD8+ T cells compared to OVA: much higher numbers
  annexin-V+ proliferating OT-I CD8+ T cells compared to OVA: much higher numbers
OT-I CD8+ T cells [6]; spleen, 5 days, dose equimolar to 10 μg OVA
  OT-I CD8+ T cell proliferation (CFSE dilution) compared to ERY1-OVA or OVA: markedly enhanced

B1: TER119-ChrA: chromogranin-A mimotope 1040-p31 recombinantly fused to mouse erythrocyte-specific scFv TER119 (protein)
scFv: EVKLQESGGGLVQPGGSLKLSCVASGFTFRDHWMNWVRQAPGKTMEWIGDIRPDGSDTNYAPSVRNRFTISRDNTRSILYLQMGNMRSDYTATYYCVRDSPTRAGLMDAWGQGTSVTVSSAGGGGSGGGGSGGGGSGGGGSDIQMTQSPSVLSASVGDRVTLNCKASQNINKYLNRYQQKLGEAPKVLVYNTNNLQTGIPSRFSGSGSGTDFTLTISSLQPEDFATYFCFQHYTWPTFGGVTKLEIKRTHHHHHHGGGYVRPLWVRME
Mouse erythrocytes [7]
  binding to mouse erythrocytes: tightly bound mouse erythrocytes
BDC2.5 CD4 T cells
  processing and display on MHC-II, priming of antigen-specific proliferation of BDC2.5 CD4 T cells in vitro: efficiently processed

B2: asparaginase (protein, UniProt P00805 23-348, looked up)
L-asparaginase 2: LPNITILATGGTIAGGGDSATKSNYTVGKVGVENLVNAVPQLKDIANVKGEQVVNIGSQDMNDNVWLTLAKKINTDCDKTDGFVITHGTDTMEETAYFLDLTVKCDKPVVMVGAMRPSTSMSADGPFNLYNAVVTAADKASANRGVLVVMNDTVLDGRDVTKTNTTDVATFKSVNYGPLGYIHNGKIDYQRTPARKHTSDTPFDVSKLNELPKVGIVYNYANASDLPAKALVDAGYDGIVSAGVGNGNLYKSVFDTLATAAKTGTAVVRSSRVPTGATTQDAEVDDAKYGFVASGTLNPQKARVLLQLALTQTKDPQQIQQIFNQY
notes: native asparaginase, Medac GmbH
[8]
  anti-asparaginase antibodies in serum: high levels of anti-asparaginase antibodies
[9]
  asparaginase-specific antibody titers (immunogenicity): induced vigorous immunity
[10]
  antibody response after challenge with wild-type asparaginase: increased or remained high
